Measurements taken from patent US20250313572A1, “MACROCYCLIC MCL-1 INHIBITORS AND METHODS OF USE” (AbbVie Inc., priority 2017, published 2025).
pKi: −log10 of the molar value. Read-outs that look alike come from different tables or passages of the source.

Columns and labels:
GST-MCL-1 = GST-MCL-1 (Homo sapiens, UniProt Q07820); experiment: TR-FRET MCL-1 binding assay (competition with probe F-Bak); details: for Ki: MCL-1 Binding Ki (nM, 10% HS), in the presence of 10% HS (human serum); for pKi: without HS, read-out: MCL-1 Binding Ki
Outline: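 Displacement of F-Bak from GST-MCL-1 is detected by time-resolved FRET with a Tb-labelled anti-GST antibody, with excitation 340/35 nm and emission 520/525 and 495/510 nm, after 2 hours at room temperature. Compounds were titrated in 11 three-fold steps starting at 25 μM final, in buffer alone or in 10% HS.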

[1] = tested on: AMO-1 human multiple myeloma tumor cell line; experiment: AMO-1 cell viability assay (CellTiter-Glo, 24 hours); format: cell-based
[2] = tested on: NCI-H929 human multiple myeloma tumor cell line; experiment: NCI-H929 cell viability assay (CellTiter-Glo, 24 hours); format: cell-based
[3] = Homo sapiens, AMO1, 24 h, read-out: AMO-1 Viability IC50 (μM, 10% FBS), 10% FBS, 24 hours of compound treatment
[4] = Homo sapiens, NCI-H929, 24 h, read-out: H929 Viability IC50 (μM, 10% FBS), 10% FBS, 24 hours of compound treatment

Chain of GST-MCL-1 (Q07820 whole entry): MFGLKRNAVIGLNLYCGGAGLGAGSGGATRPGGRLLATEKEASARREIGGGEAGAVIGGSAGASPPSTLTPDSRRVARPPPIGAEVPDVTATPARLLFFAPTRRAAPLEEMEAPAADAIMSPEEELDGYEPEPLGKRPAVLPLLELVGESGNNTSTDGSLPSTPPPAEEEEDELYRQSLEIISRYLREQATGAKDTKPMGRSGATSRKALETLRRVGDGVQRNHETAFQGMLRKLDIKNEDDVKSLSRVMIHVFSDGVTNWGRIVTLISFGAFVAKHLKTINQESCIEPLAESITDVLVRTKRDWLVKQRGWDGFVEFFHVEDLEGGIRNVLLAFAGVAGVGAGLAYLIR

Structure (SMILES) | Ki (GST-MCL-1) | pKi (GST-MCL-1) | IC50 [1, 3] | IC50 [2, 4] | IC50 ([1]; read-out: AMO-1 Viability IC50 (μM, 10% FBS), 10% FBS, 24 hours of compound treatment) | IC50 ([2]; read-out: H929 Viability IC50 (μM, 10% FBS), 10% FBS, 24 hours of compound treatment)
Cc1c(Cl)c2c(Cl)c(C)c1-c1c(-c3ccc(F)cc3)sc3ncnc(c13)O[C@@H](C(=O)O)Cc1cc(ccc1OCc1ccnc(N3CCOCCOCCOCCOCCOCC3)n1)OC[C@@H](CN1CCN(C)CC1)O2 [Example 116, (7R,16R)-19,23-dichloro-1-(4-fluorophenyl)-20,22-dimethyl-16-[(4-methylpiperazin-1-yl)methyl]-10-{[2-(1,4,7,10,13-pentaoxa-16-azacyclooctadecan-16-yl)pyrimidin-4-yl]methoxy}-7,8,15,16-tetrahydro-18,21-etheno-13,9-(metheno)-6,14,17-trioxa-2-thia-3,5-diazacyclononadeca[1,2,3-cd]indene-7-carboxylic Acid] | 2.94 nM | 9.48 | 0.00297 µM | 0.00798 µM |  | 
Cc1c(Cl)c2c(Cl)c(C)c1-c1c(-c3ccc(F)cc3)sc3ncnc(c13)O[C@@H](C(=O)O)Cc1cc(ccc1OCc1ccnc(N3CC4CC(C4)C3)n1)OC[C@@H](CN1CCN(C)CC1)O2 [Example 171, (7R,16R)-10-{[2-(3-azabicyclo[3.1.1]heptan-3-yl)pyrimidin-4-yl]methoxy}-19,23-dichloro-1-(4-fluorophenyl)-20,22-dimethyl-16-[(4-methylpiperazin-1-yl)methyl]-7,8,15,16-tetrahydro-18,21-etheno-13,9-(metheno)-6,14,17-trioxa-2-thia-3,5-diazacyclononadeca[1,2,3-cd]indene-7-carboxylic Acid] | 3.98 nM | 10.00 | 0.00112 µM | 0.00757 µM |  | 
COCCOCCO[C@]1(c2nccc(COc3ccc4cc3C[C@H](C(=O)O)Oc3ncnc5sc(-c6ccc(F)cc6)c(c35)-c3c(C)c(Cl)c(c(Cl)c3C)O[C@H](CN3CCN(C)CC3)CO4)n2)CC[C@H](OCC2COCCO2)CC1 (stereo partly drawn) [Example 122, (7R,16R)-19,23-dichloro-10-[(2-{(1s,4s)-4-[(1,4-dioxan-2-yl)methoxy]-1-[2-(2-methoxyethoxy)ethoxy]cyclohexyl}pyrimidin-4-yl)methoxy]-1-(4-fluorophenyl)-20,22-dimethyl-16-[(4-methylpiperazin-1-yl)methyl]-7,8,15,16-tetrahydro-18,21-etheno-9,13-(metheno)-6,14,17-trioxa-2-thia-3,5-diazacyclononadeca[1,2,3-cd]indene-7-carboxylic Acid] | 0.698 nM | 10.62 | 0.00107 µM | 0.00277 µM |  | 
COCCOCCOCCOCCOCCOC[C@]1(F)CC[C@@H](c2nccc(COc3ccc4cc3C[C@H](C(=O)O)Oc3ncnc5sc(-c6ccc(F)cc6)c(c35)-c3c(C)c(Cl)c(c(Cl)c3C)O[C@H](CN3CCN(C)CC3)CO4)n2)CC1 [Example 113, (7R,16R)-19,23-dichloro-10-({2-[(1s,4s)-4-fluoro-4-(2,5,8,11,14,17-hexaoxaoctadecan-1-yl)cyclohexyl]pyrimidin-4-yl}methoxy)-1-(4-fluorophenyl)-20,22-dimethyl-16-[(4-methylpiperazin-1-yl)methyl]-7,8,15,16-tetrahydro-18,21-etheno-13,9-(metheno)-6,14,17-trioxa-2-thia-3,5-diazacyclononadeca[1,2,3-cd]indene-7-carboxylic Acid] | 0.065 nM | 10.80 | 0.00028 µM | 0.00064 µM |  | 
COCCOCCOCCOCCOCCOCC1(c2nccc(COc3ccc4cc3C[C@H](C(=O)O)Oc3ncnc5sc(-c6ccc(F)cc6)c(c35)-c3c(C)c(Cl)c(c(Cl)c3C)O[C@H](CN3CCN(C)CC3)CO4)n2)CCCC1 [Example 76, (7R,16R)-19,23-dichloro-1-(4-fluorophenyl)-10-({2-[1-(2,5,8,11,14,17-hexaoxaoctadecan-1-yl)cyclopentyl]pyrimidin-4-yl}methoxy)-20,22-dimethyl-16-[(4-methylpiperazin-1-yl)methyl]-7,8,15,16-tetrahydro-18,21-etheno-13,9-(metheno)-6,14,17-trioxa-2-thia-3,5-diazacyclononadeca[1,2,3-cd]indene-7-carboxylic Acid] | 0.634 nM | 9.80 | 0.000409 µM | 0.000648 µM |  | 
Cc1c(Cl)c2c(Cl)c(C)c1-c1c(-c3ccc(F)cc3)sc3ncnc(c13)O[C@@H](C(=O)O)Cc1cc(ccc1OCc1ccnc(N3C[C@H]4C[C@@H](C3)C4(F)F)n1)OC[C@@H](CN1CCN(C)CC1)O2 [Example 172, (7R,16R)-19,23-dichloro-10-({2-[(1R,5S)-6,6-difluoro-3-azabicyclo[3.1.1]heptan-3-yl]pyrimidin-4-yl}methoxy)-1-(4-fluorophenyl)-20,22-dimethyl-16-[(4-methylpiperazin-1-yl)methyl]-7,8,15,16-tetrahydro-18,21-etheno-13,9-(metheno)-6,14,17-trioxa-2-thia-3,5-diazacyclononadeca[1,2,3-cd]indene-7-carboxylic Acid] | 2.74 nM | 9.85 | 0.000966 µM | 0.00524 µM |  | 
COCCOCCOCCOCCOCCOCC1(F)CC=C(c2nccc(COc3ccc4cc3C[C@H](C(=O)O)Oc3ncnc5sc(-c6ccc(F)cc6)c(c35)-c3c(C)c(Cl)c(c(Cl)c3C)O[C@H](CN3CCN(C)CC3)CO4)n2)CC1 (single isomer, unassigned) [Example 100, (7R,16R)-19,23-dichloro-10-({2-[(4R*)-4-fluoro-4-(2,5,8,11,14,17-hexaoxaoctadecan-1-yl)cyclohex-1-en-1-yl]pyrimidin-4-yl}methoxy)-1-(4-fluorophenyl)-20,22-dimethyl-16-[(4-methylpiperazin-1-yl)methyl]-7,8,15,16-tetrahydro-18,21-etheno-13,9-(metheno)-6,14,17-trioxa-2-thia-3,5-diazacyclononadeca[1,2,3-cd]indene-7-carboxylic Acid] | 0.176 nM | 10.77 |  |  | 0.00033 µM | 0.000547 µM
COCCOCCOC[C@H]1CC=C(c2nccc(COc3ccc4cc3C[C@H](C(=O)O)Oc3ncnc5sc(-c6ccc(F)cc6)c(c35)-c3c(C)c(Cl)c(c(Cl)c3C)O[C@H](CN3CCN(C)CC3)CO4)n2)CC1 [Example 127, (7R,16R)-19,23-dichloro-1-(4-fluorophenyl)-10-({2-[(4R)-4-{[2-(2-methoxyethoxy)ethoxy]methyl}cyclohex-1-en-1-yl]pyrimidin-4-yl}methoxy)-20,22-dimethyl-16-[(4-methylpiperazin-1-yl)methyl]-7,8,15,16-tetrahydro-18,21-etheno-13,9-(metheno)-6,14,17-trioxa-2-thia-3,5-diazacyclononadeca[1,2,3-cd]indene-7-carboxylic acid] | 0.339 nM | 10.55 | 0.000124 µM | 0.000385 µM |  | 
COCCOCCOCCOCCOCCOCCOCCOc1ccc(-c2nccc(COc3ccc4cc3C[C@H](C(=O)O)Oc3ncnc5sc(-c6ccc(F)cc6)c(c35)-c3c(C)c(Cl)c(c(Cl)c3C)O[C@H](CN3CCN(C)CC3)CO4)n2)cc1 [Example 54, (7R,16R)-19,23-dichloro-1-(4-fluorophenyl)-10-[(2-{4-[(2,5,8,11,14,17,20-heptaoxadocosan-22-yl)oxy]phenyl}pyrimidin-4-yl)methoxy]-20,22-dimethyl-16-[(4-methylpiperazin-1-yl)methyl]-7,8,15,16-tetrahydro-18,21-etheno-13,9-(metheno)-6,14,17-trioxa-2-thia-3,5-diazacyclononadeca[1,2,3-cd]indene-7-carboxylic Acid] | 0.139 nM | 10.60 | 0.000591 µM | 0.000771 µM |  | 
